Reference: US20170049739A1, “PROSTACYCLIN COMPOUNDS, COMPOSITIONS AND METHODS OF USE THEREOF” (INSMED INCORPORATED, priority 2013, published 2017)
Entries after “also recorded” stand apart in the source; their conditions may differ.

Columns and labels:
[1] = Treprostinil alkyl ester conversion to treprostinil in rat lung tissue homogenate; format: in vitro ADME; conditions: 37° C., 200 nM, 10 mg/mL of protein, 4 hours
Description: Treprostinil alkyl ester conversion to treprostinil was also measured in the presence of rat, dog and monkey lung tissue homogenate at 37° C. Mere, data were calculated based on fit of exponential increase to the maximum (experiments performed in duplicate). The results of this study are provided below in Table 2A and FIG. 37. […] Both FIG. 37 experiments (left and right graphs) were performed in duplicate and the lines represent nonlinear exponential regression assuming 1 phase decay.

[2] = Particle size characterization of treprostinil compositions (QELS); format: physicochemical; conditions: particles of compositions comprising the alkyl ester (FIG. 2)
Description: All particle size measurements were performed using a Wyatt Technology Mobius™ Zeta Potential/ Particle Sizing Instrument in Quasi-elastic light scattering (QELS) mode. Composition aiiquots were diluted 10-fold in pre-filtered (0.02 μm pore filter) ultrapure of deionized H2O. Light scattering data was collected and converted into particle size and size distribution using Dynamics® v. […] Reported average particle size diameter is based on the cumulants model, which mathematically fits particle diffusion constants (determined by the raw scattering intensities of particles in a suspension) to obtain the particle size mean and a distribution of particle sizes around the mean diameter.
Particle uniformity was determined using the software-calculated polydispersity (% PD). Polydispersity is defined as the standard deviation of the particle size distribution from the mean particle size value. % PD normalizes the polydispersity to the mean diameter by dividing by the mean size and multiplylng by 100. These parameters indicate whether a particle suspension has one or more size populations of particles (monomodal versus multimodal). […]
Dynamics® polydispersity parameter represents a monodisperse population of particles if % PD≦15. A calculated % PD≧57% represents a polydisperse population of particles.

[3] = target: T1, EP2 prostanoid receptor (Homo sapiens, UniProt P43116); assay: GloSensor cAMP assay in CHO-K1 cells co-transfected with the EP2 receptor; format: cell-based; conditions: for change of potency with incubation time / release profile: dose response curves at 0.5 to 8 hr incubation
T1 construct: host or cells: CHO-K1 cells, transiently co-transfected with pGloSensor-22F cAMP plasmid and pGEM-3Zf(+)
Source text: cAMP is a second messenger involved in signal transduction of G-protein coupled receptors (GPCRs) acting through Ga-s and Ga-i proteins. Because the treprostinil receptor is a GPCR, the assay provides an indication of whether the respective prostacyclin compound (or metabolite thereof) binds its receptor and activates the GPCR cell signaling cascade. The GloSensorTM assay harnesses a genetically modified form of firefly luciferase into which a cAMP-binding protein moiety has been inserted. Upon binding of cAMP, a conformational change is induced leading to increased light output. The EP2 prostanoid receptor was co-transfected with the GloSensorTM plasmid (Promega) into CHG-K1 cells as follows. CHO-K1 cells were harvested when the monoloayer was at 50-90% confluence. First, cells were washed with 5 mL PBS. […] The media was aspirated, and the cell pellet was resuspended in 10 mL of growth media. Cell number was determined using a hemacytometer. Each well of a culture treated 96 […] bottom plate (Costar, Cat #: 3917) was seeded with 1×10^4 cells per 100 μL antibiotic-free growth media. […] For small scale transfections of up to 20 wells, the pGLoSensor-22F cAMP plasmid (Promega, Cat #: E2301) (2 μg): (EP2) (10 ng) (Origene, Cat #: SC126558) : pGEM-3Zf(+) (10 ng) (Promega, Cat #: P2271) ratio was diluted to a final concentration of 12.6 ng/μL (total plasmid) in Opti-MEM I reduced-serum medium (Life Technologies, Cat #: 1985062). Next, 6 μL of FuGENE HD transfection reagent (Promega, Cat #: E2311) was added to 160 μL of diluted plasmid and mixed carefully by gentle pipetting. The complex was incubated at room temperature for 0 to 10 minutes, and then 8 μL of the complex was added per well of a 96 well white assay plate (Costar, Cat #: 3917) and gently mixed without disturbing the cell monolayer. […] Following incubation, cells were treated and analyzed. For larger scale transfections, the aforementioned steps were scaled up accordingly, and cells were frozen following the last incubation. In order to prepare frozen transfected CHO-K1 cells, the media was aspirated from culture flasks and cells were rinsed with 5 mL PBS. […] Cell number was determined using a hemacytometer. The media was aspirated, and the cell pellet was resuspended in freezing media (Millipore, cat #: S-002-5F) at 2.5×10^6 cells/vial. Transfected cells were incubated overnight at -80° C. before transfer to liquid nitrogen for long term storage. […] In preparation for cAMP measurement, the cells were equilibrated with the GloSensor cAMP reagent prior to treatment. For equilibration, the medium was carefully removed from the individual well. Next, 100 μL of equilibration medium (6% v/v of Glosensor Reagent stock solution (Promega, Cat #: E291), 10% FBS (Hyclone, Cat #: SH30071.03) and 88% CO2 independent medium (Life Technologies, Cat #: 18045088)) was added per well of the 96-well plate, and added to the side of each well. The plate was then incubated for 2 hours at room temperature. A first pre-read measurement was taken using a microplate reader (MicroLumat Plus). Plates were incubated for an additional 10 minutes at room temperature, followed by a second pre-read measurement. […] Following treatment, each plate was read every 5 minutes for the duration of the assay using a microplate reader (MicroLumat Plus). In order to determine the fold change in cAMP relative to the control, the transfection efficiency was first determined by dividing the second pre-read measurement by the average of the corresponding pre-read measurements. Next, the normalized relative light units (RLUs) of the samples were determined by dividing the plate read measurement by the transfection efficiency. The fold change in cAMP relative to the control was then determined by dividing the normalized RLU of the samples by the normalized RLU of the control. […] Results from the three highest concentrations are provided at FIG. 3A (10 μM), FIG. 3B (1 μM) and FIG. 3C (0.1 μM). […]

[4] = physchem; conditions: organic solvent or mixture, thermodynamic from solid
Description: Selected treprostinil derivatives were evaluated for the use in a metered dose inhaler (MDI).
5 mg of each treprostinil compound was added in a glass bottle. Specific amount of ethanol was added by weight. An MDI valve was crimped to each bottle, and HFA propellant added through the valve to the total volume of 5 mL. Compounds were allowed to dissolve for 24 hours at room temperature. The formulations were assessed visually for solubility. The goal was to estimate the minimum ethanol concentration required to solubilize each compound in propellant.
Soluble samples presented as clear and colorless solutions. […] Non-soluble samples had white precipitate or crystals formed. Ethanol was added as a solubility aid.

[5] = Treprostinil pharmacokinetics in anaesthetised, ventilated rats after nebulized dosing; format: in vivo, rat; conditions: nebulized solution
Description: Male Sprague Dawley rats wrere anaesthetised and prepared with endotracheal tube for ventilation. The right femoral vein was cannulated to facilitate blood collections. Terminal lung samples were taken for analysis only 6 hours after dosing. […] Systemic blood pressure (mSAP), heart rate (HR), and arterial oxygen saturation (SaO2). Physiologic parameters were measured during normoxia (fraction of inspired oxygen [FrO2]=0.21, SaO2 ≈90%) and for 2 to 3 hours during hypoxia (FrO2=0.10, SaO2≈50%).

[6] = dog, in vivo
Description: Twelve beagle dogs of either sex were randomly assigned to different inhaled doses of treprostinil in PBS or the compound of Formula (A) wherein R2=
Formulations were nebulized with an Aeroneb nebulizer (MMAD: 2.5-4 μm) delivered into a 500 ml expansion chamber. Formulations were nebulized for 2 min at ventilator settings of 90 ml/breath, 15 breaths/min (delivered volume=2.7 L) and collected on a filter. Drug amount (μg) on the filter was measured by HPLC to calculate the concentration of drug delivered through the ventilator circuit (μg/L).
Dosimetry was performed in propofol-anesthetized dogs in which nebulized drugs were introduced into a mixing chamber interposed on the inspiratory limb of a canine respirator. Technical trials were performed before each experiment to measure the concentration of drug (μg/L) delivered for each breath. The inhaled drug dose (μg/kg) was calculated using the formula: Inhaled Drug Dose (μg/kg)=Drug Cone. (μg/L)×Minute Ventilation (L/min.)×Time (min.)/Body Weight (kg).
Dosimetry was performed in propofol-anesthetized, artificially ventilated dogs in which nebulized drugs were introduced into a mixing chamber interposed on the inspiratory limb of the respirator. Technical trials were performed before each experiment measuring the concentration of drug (μg/L) per breath, minute ventilation and time required to achieve a targeted pulmonary dose. […] Clinical signs (cough, rapid shallow breathing, emesis and pale gums) were also monitored.

[7] = system: cough reflex; assay: Cough reflex in guinea pigs exposed to aerosols; format: in vivo, guinea pig
Description: has the following components: Aerosols were generated with an Ultra-Neb Pro nebulizer (nebulizer output 0.36 mL/min.) that was mixed with inspired air delivered at a rate of 2 L/min. […] Coughs were detected by visual observations, plethysmograph recordings and cough sounds.

[8] = rat, in vivo
Description: Nebulized treprostinil (TRE) solution and treprostinil alkyl ester formulations were administered (at 15 nmol/kg, or […] TRE equivalent) to anaesthetised-ventilated rats (6-hour studies) or to conscious rats by nose-only inhalation (24-hour studies). Blood and lung samples were collected at specified time points. TRE and treprostinil alkyl ester concentrations in blood plasma and lung tissue were measured by HPLC/MS/MS analysis.
Male Sprague Dawley rats were placed in restraining tubes and exposed to nebulised drugs via the Jaeger-NYU Nose-Only Directed-Flow Inhalation Exposure System (CH Technologies, Westwood, N.J.) (FIG. 31), Test articles (6 mL at specific concentration) were nebulised using the Aeroneb nebuliser to deliver a predetermined estimated pulmonary dose. Blood and lung tissue samples were taken at selected times after nebulization of the drags over a 24-hour period.

[9] = Tolerability and pharmacokinetics in rats after 14 consecutive days of inhaled C16-TR (T748); format: in vivo, rat; conditions: T748, 0.6-18 μg/kg inhaled
Description: Body weights were recorded daily and organ weights (lungs, heart, liver) were measured 24 hr, after the last drug dose.

[10] = nebulized concentration of 30 μg/mL

T1 sequence (P43116 whole entry): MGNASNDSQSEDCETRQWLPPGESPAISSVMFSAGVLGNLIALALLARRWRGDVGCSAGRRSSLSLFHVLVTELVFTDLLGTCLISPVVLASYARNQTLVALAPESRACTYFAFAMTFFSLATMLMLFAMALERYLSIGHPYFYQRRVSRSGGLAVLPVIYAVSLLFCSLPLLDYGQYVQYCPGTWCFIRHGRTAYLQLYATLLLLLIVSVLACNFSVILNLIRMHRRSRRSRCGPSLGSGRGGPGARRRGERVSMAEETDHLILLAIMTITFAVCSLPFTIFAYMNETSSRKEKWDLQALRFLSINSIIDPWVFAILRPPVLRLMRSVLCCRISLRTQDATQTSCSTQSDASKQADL

CCCCCCCCCCCCCCOC(=O)COc1cccc2c1C[C@H]1C[C@@H](O)[C@H](CC[C@@H](O)CCCCC)[C@H]1C2 [C14-TR, tetradecyl-treprostinil]
Rate of treprostinil alkyl ester conversion [1]: 0.4 nmOL/h * g of protein
polydispersity (% PD) [2]: around 15 % PD
change of potency with incubation time / release profile [3]: increases with incubation time
solubility at 24 h [4]: < 1000 µg/mL
solubility at 24 h ([4]; Solubility in HFA-134a with added ethanol): < 1000 µg/mL

CCCCC[C@H](O)CC[C@@H]1[C@H]2Cc3cccc(OCC(=O)O)c3C[C@H]2C[C@H]1O [Treprostinil, (1R,2R,3aS,9aS)-[[2,3,3a,4,9,9a-hexahydro-2-hydroxy-1-[(3S)-3-hydroxyoctyl]-1H-benz[f]inden-5-yl]oxy]acetic acid]
time for which cAMP level was sustained ([3]; 10 μM, FIG. 3A): not exhibited
Max cAMP level (Fold) ([3]; compositions shown in FIG. 3, 8 hours time course): ~16 Fold
Max cAMP level (Fold) ([3]; compositions shown in FIG. 4, 5 μM, 8 hours time course): ~14 Fold
change of potency with incubation time / release profile [3]: potency decreases with increasing incubation time
Max cAMP level (Fold) ([3]; effect of nebulization study (FIG. 6), head prints (5 μM)): ~15 Fold
time by which measurable levels of TRE were not seen in the lungs [5]: < 6 h
time to which measurable levels of TRE were seen in the blood plasma [5]: ≤ 4 h
time by which plasma treprostinil was below the level of quantification ([6]; both, beagle): ≤ 4 h
treprostinil plasma Cmax relative to similar inhaled doses of T623 ([6]; both, beagle): 15-20 fold
period over which plasma levels of treprostinil were sustained [6]: disappeared within a few hours
exposure concentration consistently evoking cough ([7]; guinea pigs, aerosol 10 min.): ≥ 30 µg/mL
cough bouts [7, 10]: 1-4
guinea pigs with cough [7, 10]: 7 of 7
total number of coughs [7, 10]: 36+9 coughs

hexadecyl-treprostinil [C16-TR]
change of potency with incubation time / release profile [3]: increases with incubation time
ranking of activity of the treprostinil compounds ([3]; unformulated compounds, 10 μM and 5 μM, FIG. 21): C12-TR>C14-TR>5-nonanyl-TR>C16-TR
release kinetics of treprostinil over 24 hours [8]: independent of dose
adverse clinical signs in the dose-response study [6]: adverse clinical signs were seen in only 1 dog
tolerability, body weights and organ weights [9]: no tolerability issues or significant changes (relative to PBS) in body weights and organ weights; also recorded: well tolerated
